From patent publication US20210120789A1, “Genetically Modified Non-Human Animals” (Shanghai RAAS Blood Products Co., Ltd., priority 2019, published 2021)

Tests used:
[1] = system: factor IX deficient mice (F9−/−); experiment: Hemophilia B model, tail transection bleeding time; format: in vivo, mouse; details: distal tail transected at 4 mm, injected into an orbital vein 5 min before transection, vs no factor injected
Method: (§1) For hemophilia A model, 8 to 10-week-old mice including WT mice, factor VIII deficient mice (F8−/−) and human protein C knockin and factor VIII deficient double mutant mice (hproC+/+, F8−/−) anesthetized using 80 mg/kg sodium pentobarbital i.p. were placed on their abdomen with the tail immersed in 37° C. saline. The distal tail of mice was transected at 4 mm (severe injury), and the bleeding was arterial and venous. Human factor VIII was injected into an orbital vein 5 min before the tail was transected. Controls were also performed in which no Human Factor VIII was injected. For hemophilia B model, the same procedures were conducted except that factor IX deficient mice (F9−/−), human protein C knockin and factor IX deficient double mutant mice (hproC+/+, F9−/−), and human factor IX were used. Bleeding time was measured following the tail-tip transection and immediate immersion of the tail in 10 ml of saline at 37° C. Bleeding time was set at cessation of blood leakage for at least 1 min. After 15 min, the tail was removed from the saline and the bleeding time measure was ended.

[2] = system: human protein C knockin and factor IX deficient double mutant mice (hproC+/+, F9−/−); experiment: Hemophilia B model, tail transection bleeding time; format: in vivo, mouse; details: distal tail transected at 4 mm, injected into an orbital vein 5 min before transection, vs no factor injected
Method: as §1

human factor IX: human blood clotting factor IX, injected before tail transection in the hemophilia B model
bleeding time [1]: correct the prolonged bleeding time
bleeding time [2]: correct the prolonged bleeding time
